Several values for one entry are separate records, joined by “and”; a condition that tells them apart may be missing. Identical values can stand only once. Like-named read-outs stand apart in the source and are kept apart here. Each block holds one compound with its values, some of them ahead of it.
Tests used:
Wild Type RT = Wild Type RT (Human immunodeficiency virus type 1 group M subtype B, UniProt P04585); experiment: HIV-1 Reverse Transcriptase Inhibition Assay; type: biochemical; details: Wild Type RT IC50
Method: The following materials were removed from the freezer and were stored on wet ice (dGTP, ^32P, purified enzyme extract, rCdG, dGTP, DNA). Test compounds were evaluated at a high test of 100 μM diluted in dH2O and if the stock solution was turbid, 1:1000 Triton-X was added to the stock solution. Thirty microliters (30 μL) of each dilution was then transferred in duplicate to the appropriate well of a 96-well plate. The positive and negative control wells each received 30 μL of dH2O instead of the compound. A 2× buffer was prepared in the following manner: 125 μL 2M Tris pH 8.0, 250 μL 3M KCl, 80 μL 1 M MgC12, 10 μL 2 M DTT, 40 μL 25 U/mL rCdG, 100 μL 1 mM dGTP, 10 μL 800 Ci/mMol alpha ^32P:dG TP, and 4.4 mL dH2O. Fifty microliters (50 μL) of 2× buffer was added to every well of the plate. BSA was diluted 1:100 and Triton-X 1:1000 in dH2O and the enzyme was added to the mixture at a 1:400 dilution. Twenty microliters (20 μL) of the enzyme solution was added to all of the wells of the plate except the negative control wells. Distilled water was used instead of enzyme in these wells. The plate was incubated at 37° C. for 30 minutes. Following incubation, 10 μL of 10 mg/mL DNA (MB-grade fish sperm) was added to each well, followed by 150 μL of cold 10% TCA in each well. The plate was incubated at room temperature for approximately 15 minutes in order to allow for precipitation of the samples. Following the incubation the contents were transferred to the appropriate filter plate. The plate was placed on the vacuum manifold and pushed firmly to induce suction. Wells were rinsed with 200 μL of cold TCA. Again, the plate was pushed down firmly and vacuum suction was applied. Once all of the liquid was aspirated from the filter plate, it was removed from the manifold and residual liquid was blotted from the bottom of the plastic base. The filtered wells were separated from the plastic base and the wells were blotted on clean, absorbent paper. The filtered wells were pushed into the cassette and a sheet of Millipore multiscreen tape was placed on the bottom of a Wallace Microbeta cassette covering all of the holes. Twenty microliters (20 μL) of Wallace Supermix Scintillant was added to each well and the top of the wells were covered with a sheet of the multiscreen tape. The plate was read on the Wallace MicroBeta counter to measure incorporated ^32P.

HIV-1RF = experiment: Anti-HIV-1 cytoprotection assay in CEM-SS cells; type: cell-based
Method: Cell Preparation—CEM-SS cells were passaged in T-75 flasks prior to use in the antiviral assay. On the day preceding the assay, the cells were split 1:2 to assure they were in an exponential growth phase at the time of infection. Total cell and viability quantification was performed using a hemocytometer and Trypan Blue dye exclusion. […] The cells were resuspended at 5×10^4 cells per ml in tissue culture medium and added to the drug containing microtiter plates in a volume of 50 μL.
Virus Preparation—The virus used for the assay was the lymphocyte-tropic virus strain HIV-IRF. The virus was obtained from the NIH AIDS Research and Reference Reagent Program and stock virus pools were produced in CEM-SS cells. A pretitred aliquot of virus was removed from the freezer (−80° C.) and allowed to thaw slowly to room temperature in a biological safety cabinet.
(§1) Plate Format—Each plate contains cell control wells (cells only), virus control wells (cells plus virus), drug toxicity wells (cells plus drug only), drug colorimetric control wells (drug only) as well as experimental wells (drug plus cells plus virus). Samples were tested in triplicate with eleven half-log dilutions per compound.
(§2) Efficacy and Toxicity XTT—Following incubation at 37° C. in a 5% CO2 incubator, the test plates were stained with the tetrazolium dye XTT (2,3-bis(2-methoxy-4-nitro-5-sulfophenyl)-5-[(phenylamino)carbonyl]-2H-tetrazolium hydroxide). XTT-tetrazolium is metabolized by the mitochondrial enzymes of metabolically active cells to a soluble formazan product, allowing rapid quantitative analysis of the inhibition of HIV induced cell killing by anti-HIV test substances. XTT solution was prepared daily as a stock of 1 mg/mL in RPMI1640. Phenazine methosulfate (PMS) solution was prepared at 0.15 mg/mL in PBS and stored in the dark at −20° C. XTT/PMS stock was prepared immediately before use by adding 40 μL of PMS per ml of XTT solution. Fifty microliters of XTT/PMS was added to each well of the plate and the plate was re-incubated for 4 hours at 37° C. Plates were sealed with adhesive plate sealers and shaken gently or inverted several times to mix the soluble fosmazan product and the plate was read spectrophotometrically at 450/650 nm with a Molecular Devices Vmax plate reader.
Anti-HIV-1 Cytopathic Effects Inhibition Assay Evaluations: Eight compounds were evaluated against the RF strain of HIV-1 in CEM-SS cells using a 12 concentration dose response curve.
(§3) Data Analysis—Raw data was collected from the Softmax Pro 4.6 software and imported into a Excel XLFit4 spreadsheet for analysis by four parameter curve fit calculations. Both antiviral activity and toxicity are calculated.

in vitro [1] = type: in vitro ADME; details: human
Method: Each determination was performed in duplicate.
Vr is the volume of the receiver compartment in cm^3.
Vd is the volume of the donor compartment in cm^3.
A is the area of the cell monolayer (1.13 cm^2 for 12-well Transwell®).
CN is the nominal dosing concentration of the dosing solution in μM.
CA is the average of the nominal dosing concentration and the measured 120 minute donor concentration in μM.
Cr^final is the receiver concentration in μM at the end of the incubation period.
Cd^final is the concentration of the donor in μM at the end of the incubation period.

[2] = Toxicity XTT in CEM-SS cells (cytoprotection assay); type: cell-based; details: human, CEM-SS cells, XTT; read-out: CEM-SS TC50
Method: Cell Preparation—CEM-SS cells were passaged in T-75 flasks prior to use in the antiviral assay. On the day preceding the assay, the cells were split 1:2 to assure they were in an exponential growth phase at the time of infection. Total cell and viability quantification was performed using a hemocytometer and Trypan Blue dye exclusion. Cell viability was greater than 95% for the cells to be utilized in the assay. The cells were resuspended at 5×10^4 cells per ml in tissue culture medium and added to the drug containing microtiter plates in a volume of 50 μL.
as §1, §2, §3

in vitro [3] = details: human; for Papp A→B: Caco-2, (A-to-B) Papp; for Papp B→A: Caco-2, (B-to-A) Papp; for efflux ratio: Caco-2, Efflux Ratio
Method: The objective of this study was to determine the bidirectional Caco-2 permeability of test compounds. Caco-2 monolayers were grown to confluence on collagen-coated, microporous, polycarbonate membranes in 12-well Costar Transwell® plates. Details of the plates and their certification are shown below. The permeability assay buffer for the donor chambers was Hanks Balanced Salt Solution containing 10 mM HEPES and 15 mM glucose (HBSSg) at a pH of 7.4. The buffer in the receiver chambers also contained 1% bovine serum albumin (BSA). The dosing solution concentrations were 10 μM in the assay buffer. Cell monolayers were dosed on the apical side (A to-B) or basolateral side (B-to-A) and incubated at 37° C. with 5% CO2 in a humidified incubator. After 2 hours, aliquots were taken from the receiver and donor chambers. Each determination was performed in duplicate. The lucifer yellow flux was also measured for each monolayer to ensure no damage was inflicted to the cell monolayers during the flux period. All samples were assayed by LC/MS/MS using electrospray ionization.

NL4-3L100I = experiment: Anti-HIV cytoprotection assay, drug resistant NL4-3 L100I; type: cell-based; details: Human immunodeficiency virus 1, CEM-SS, HIV-1 strain NL4-3L100I, CEM-SS cells
Method: (§4) Cells were prepared as described above. Virus Preparation—The wild type NL4-3 and drug resistant A17 viruses were obtained from the NIH AIDS Research and Reference Reagent Program and stock virus pools were produced in CEM-SS cells. Amino acid substitutes of L100I, Y181C and P23L were introduced by site-directed mutagenesis into pN L4-3 and stock virus pools were produced in CEM-SS cells. A pretitered aliquot of virus was removed from the freezer (−80° C.) and allowed to thaw slowly to room temperature in a biological safety cabinet. Virus was re-suspended and diluted into tissue culture medium such that the amount of virus added to each well in a volume of 50 μL was the amount determined to yield 85 to 95% cell killing at 6 days post-infection.
as §2, with “Plate Format—Each plate contains cell control wells (cells only), virus control wells (cells plus virus), drug toxicity wells (cells plus drug only), drug colorimetric control wells (drug only) as well as experimental wells (drug plus cells plus virus). Samples were tested in triplicate with eleven half-log dilutions per compound. Efficacy” for “Efficacy”, “XTT-tetrazolium was” for “XTT-tetrazolium is”, “C. XTTIPMS” for “C. XTT/PMS”, “soluble formazan” for “soluble fosmazan”
as §3

NL4-3Y181C = experiment: Anti-HIV cytoprotection assay, drug resistant NL4-3 Y181C; type: cell-based; details: HIV-1 strain NL4-3Y181C; for EC50: CEM-SS cells
Method: as §4
as §2, with “Plate Format—Each plate contains cell control wells (cells only), virus control wells (cells plus virus), drug toxicity wells (cells plus drug only), drug colorimetric control wells (drug only) as well as experimental wells (drug plus cells plus virus). Samples were tested in triplicate with eleven half-log dilutions per compound. Efficacy” for “Efficacy”, “XTT-tetrazolium was” for “XTT-tetrazolium is”, “C. XTTIPMS” for “C. XTT/PMS”, “soluble formazan” for “soluble fosmazan”
as §3

NL4-3P236L = experiment: Anti-HIV cytoprotection assay, drug resistant NL4-3 P236L; type: cell-based; details: HIV-1 strain NL4-3P236L; for EC50: CEM-SS cells
Method: as §4
as §2, with “Plate Format—Each plate contains cell control wells (cells only), virus control wells (cells plus virus), drug toxicity wells (cells plus drug only), drug colorimetric control wells (drug only) as well as experimental wells (drug plus cells plus virus). Samples were tested in triplicate with eleven half-log dilutions per compound. Efficacy” for “Efficacy”, “XTT-tetrazolium was” for “XTT-tetrazolium is”, “C. XTTIPMS” for “C. XTT/PMS”, “soluble formazan” for “soluble fosmazan”
as §3

A17K103N/Y181C = experiment: Anti-HIV cytoprotection assay, drug resistant A17; type: cell-based; details: Human immunodeficiency virus 1, CEM-SS, HIV-1 strain A17K103N/Y181C, CEM-SS cells
Method: as §4, with “cabinet.” for “cabinet. Virus was re-suspended and diluted into tissue culture medium such that the amount of virus added to each well in a volume of 50 μL was the amount determined to yield 85 to 95% cell killing at 6 days post-infection.”
as §2, with “Plate Format—Each plate contains cell control wells (cells only), virus control wells (cells plus virus), drug toxicity wells (cells plus drug only), drug colorimetric control wells (drug only) as well as experimental wells (drug plus cells plus virus). Samples were tested in triplicate with eleven half-log dilutions per compound. Efficacy” for “Efficacy”, “XTT-tetrazolium was” for “XTT-tetrazolium is”, “C. XTTIPMS” for “C. XTT/PMS”, “soluble formazan” for “soluble fosmazan”
as §3

[4] = Toxicity XTT in CEM-SS cells (drug resistant strain assay); type: cell-based; details: human, CEM-SS cells, read-out: TC50 (the source's name)
Method: as §4
as §2, with “Plate Format—Each plate contains cell control wells (cells only), virus control wells (cells plus virus), drug toxicity wells (cells plus drug only), drug colorimetric control wells (drug only) as well as experimental wells (drug plus cells plus virus). Samples were tested in triplicate with eleven half-log dilutions per compound. Efficacy” for “Efficacy”, “XTT-tetrazolium was” for “XTT-tetrazolium is”, “C. XTTIPMS” for “C. XTT/PMS”, “soluble formazan” for “soluble fosmazan”
as §3

[5] = Human immunodeficiency virus 1, CEM-SS

SMILES: COCCOCCOCCNc1ccc2[nH]c(C(=O)N3CCN(c4ncccc4NC(C)C)CC3)cc2c1 [5-mPEG3-NH-Delavirdine]
IC50 (Wild Type RT): 1 µM
Therapeutic Index (HIV-1RF; CEM-SS/HIV-1RF): 212.67
EC50 (HIV-1RF; Human immunodeficiency virus 1, CEM-SS, CEM-SS cells, XTT, read-out: CEM-SS/HIV-1RF EC50): 0.16 µM
Papp A→B at 2 hours, 10 μM (in vitro [1]; Caco-2, pH 7.4, Test 2, 10 μM, 2 hours, pH 7.4, read-out: Average Papp, A→B): 33.3 ×10⁻⁶ cm/s
Papp B→A at 2 hours, 10 μM (in vitro [1]; Caco-2, pH 7.4, Test 2, 10 μM, 2 hours, pH 7.4, read-out: Average Papp, B→A): 41.8 ×10⁻⁶ cm/s
recovery at 2 h, 10 μM (in vitro [1]; Caco-2, pH 7.4, Test 2, 10 μM, 2 hours, read-out: Recovery (%) A→B): 94%
recovery at 2 h, 10 μM (in vitro [1]; Caco-2, pH 7.4, Test 2, 10 μM, 2 hours, read-out: Recovery (%) B→A): 96%
efflux ratio at 2 hours, 10 μM (in vitro [1]; Caco-2, pH 7.4, Test 2, read-out: Efflux Ratio (B→A/A→B)): 1.3
CC50 [2]: 34.9 µM

Papp (in vitro [3]; Caco-2, Papp): 20.8 ×10⁻⁶ cm/s
SMILES: CC(C)NCC(O)COc1cccc2ccccc12 (centres unmarked) [Propranolol]

SMILES: Cc1ccnc2c1NC(=O)c1cccnc1N2C1CC1 [Nevirapine, reference compound]
EC50 (NL4-3L100I): > 10 µM
TI (NL4-3Y181C): >1.2
EC50 (NL4-3Y181C): 8.59 µM
EC50 (NL4-3Y181C; [5]): > 10 µM
TI (NL4-3P236L): >33.3 and >35.7
EC50 (NL4-3P236L): 0.28 µM
EC50 (NL4-3P236L; [5]): 0.3 µM
EC50 (A17K103N/Y181C): > 10 µM
CC50 ([4]; run with HIV-1 strain A17K103N/Y181C): > 10 µM
CC50 ([4]; run with HIV-1 strain NL4-3): > 10 µM
CC50 ([4]; run with HIV-1 strain NL4-3L100I): > 10 µM
CC50 ([4]; run with HIV-1 strain NL4-3P236L): > 10 µM
CC50 ([4]; run with HIV-1 strain NL4-3Y181C): > 10 µM

SMILES: C[C@H]1O[C@@H](O[C@H]2[C@@H](O)C[C@H](O[C@H]3[C@@H](O)C[C@H](O[C@H]4CC[C@@]5(C)[C@H](CC[C@@H]6[C@@H]5C[C@@H](O)[C@]5(C)[C@@H](C7=CC(=O)OC7)CC[C@]65O)C4)O[C@@H]3C)O[C@@H]2C)C[C@H](O)[C@@H]1O [Digoxin]
Papp A→B (in vitro [3]; Test 1, Passage Number 65): 0.47 ×10⁻⁶ cm/s
Papp A→B (in vitro [3]; Test 2, Passage Number 59): 0.65 ×10⁻⁶ cm/s
Papp A→B (in vitro [3]; Test 2, Passage Number 67): 0.75 ×10⁻⁶ cm/s
Papp B→A (in vitro [3]; Test 1, Passage Number 65): 11 ×10⁻⁶ cm/s
Papp B→A (in vitro [3]; Test 2, Passage Number 59): 16.9 ×10⁻⁶ cm/s
Papp B→A (in vitro [3]; Test 2, Passage Number 67): 13.4 ×10⁻⁶ cm/s
efflux ratio (in vitro [3]; Test 1, Passage Number 65): 23
efflux ratio (in vitro [3]; Test 2, Passage Number 59): 26
efflux ratio (in vitro [3]; Test 2, Passage Number 67): 18
